Test results as given in paper PMC7587356, “High-Throughput Screening for Inhibitors of the SARS-CoV-2 Protease Using a FRET-Biosensor” (Molecules, 2020).
Counter-ions that a name gives are not always drawn. Like-named read-outs stand apart in the source and are kept apart here.

Molecular target: SARS-CoV-2 3CLpro (Severe acute respiratory syndrome coronavirus 2, UniProt P0DTD1)
Assay: biochemical
Type: biochemical
Parameters: Replicate_1 / Replicate_2 / mean / mean (LOPAC_screen_w_protease): unit not given here
Conditions: for inhibition at 5 µM: 4 h
[1] = sheet LOPAC_screen_w_protease, primary screen with protease, mean of two replicates
[2] = sheet LOPAC_screen_w_protease, primary screen with protease, replicate 1
[3] = sheet LOPAC_screen_w_protease, primary screen with protease, replicate 2
[4] = sheet LOPAC_screen_w_protease, primary screen of LOPAC1280 at 5 µM with protease, mean of the two replicates, read-out: mean
[5] = sheet LOPAC_screen_w_protease, primary screen of LOPAC1280 at 5 µM with protease, replicate 1, read-out: Replicate_1
[6] = sheet LOPAC_screen_w_protease, primary screen of LOPAC1280 at 5 µM with protease, replicate 2, read-out: Replicate_2
[7] = LOPAC1280 primary screen with protease, 5 µM compound, mean of the two replicates
[8] = LOPAC1280 primary screen with protease, 5 µM compound, replicate 1
[9] = LOPAC1280 primary screen with protease, 5 µM compound, replicate 2
[10] = sheet LOPAC_screen_w_protease, primary screen with protease, compound at 5 µM, mean of two replicates
[11] = sheet LOPAC_screen_w_protease, primary screen with protease, compound at 5 µM, replicate 1
[12] = sheet LOPAC_screen_w_protease, primary screen with protease, compound at 5 µM, replicate 2
[13] = sheet LOPAC_screen_w_protease, LOPAC1280 primary screen at 5 µM, with protease, mean of the two replicates
[14] = sheet LOPAC_screen_w_protease, LOPAC1280 primary screen at 5 µM, with protease, replicate 1
[15] = sheet LOPAC_screen_w_protease, LOPAC1280 primary screen at 5 µM, with protease, replicate 2
[16] = sheet LOPAC_screen_w_protease, LOPAC1280 at 5 µM, mean of two replicates
[17] = sheet LOPAC_screen_w_protease, LOPAC1280 at 5 µM, replicate 1
[18] = sheet LOPAC_screen_w_protease, LOPAC1280 at 5 µM, replicate 2
[19] = sheet LOPAC_screen_w_protease, primary screen with protease, mean of two replicates, read-out: mean
[20] = sheet LOPAC_screen_w_protease, primary screen with protease, replicate 1, read-out: Replicate_1
[21] = sheet LOPAC_screen_w_protease, primary screen with protease, replicate 2, read-out: Replicate_2

## Br.CCCN(CCC)[C@@H]1CCc2ccc(O)cc2C1 [R-(+)-7-Hydroxy-DPAT hydrobromide]
[1]
  mean: 2.2447
[2]
  Replicate_1: 2.253
[3]
  Replicate_2: 2.237

## CC(N)C(=O)OC(C)(C)Cc1ccc(Cl)cc1 (stereo not drawn) [Alaproclate hydrochloride]
[4]
  inhibition at 5 µM: 3.56%
[5]
  inhibition at 5 µM: 2.81%
[6]
  inhibition at 5 µM: 4.3%

## O=C(O)CC[N+](=O)[O-] [3-Nitropropionic acid]
[4]
  inhibition at 5 µM: 3.54%
[5]
  inhibition at 5 µM: 2.8%
[6]
  inhibition at 5 µM: 4.28%

## Cl.NC1C=CC=C(C(=O)O)C1 (stereo not drawn) [Gabaculine hydrochloride]
[7]
  mean (LOPAC_screen_w_protease): 2.074
[8]
  Replicate_1 (LOPAC_screen_w_protease): 1.548
[9]
  Replicate_2 (LOPAC_screen_w_protease): 2.6

## O=C(O)CCCCCCC1C(=O)NC(=O)N1CCC(O)C1CCCCC1 (stereo not drawn) [BW 245C]
  Replicate_1 (LOPAC_screen_w_protease): 2.361
  Replicate_2 (LOPAC_screen_w_protease): 0.3585
  mean (LOPAC_screen_w_protease): 1.3595

## CCN(CC)CCOC(=O)c1cc(Cl)c(N)cc1OC.Cl [SDZ-205,557 hydrochloride]
[10]
  mean: 2.714
[11]
  Replicate_1: 3.796
[12]
  Replicate_2: 1.633

## Cn1c(=O)c2[nH]c(-c3ccc(S(=O)(=O)O)cc3)nc2n(C)c1=O [8-(p-Sulfophenyl)theophylline]
[10]
  mean: 3.141
[11]
  Replicate_1: 2.844
[12]
  Replicate_2: 3.439

## N#CC(C#N)=C(N)/C(C#N)=C/c1ccc(O)cc1 [Tyrphostin AG 112]
[1]
  mean: 2.497
[2]
  Replicate_1: 2.949
[3]
  Replicate_2: 2.046

## Cl.Nc1cc(Cl)c(N=C2NCCN2)c(Cl)c1 [p-Aminoclonidine hydrochloride]
Sheet LOPAC_screen_w_protease, primary screen with protease, 5 µM, mean of two replicates
  mean: 0.1922
Sheet LOPAC_screen_w_protease, primary screen with protease, 5 µM, replicate 1
  Replicate_1: 0.5913
Sheet LOPAC_screen_w_protease, primary screen with protease, 5 µM, replicate 2
  Replicate_2: -0.207

## CN1CC[C@@]2(C)c3cc(O)ccc3N(C)[C@@H]12.O=C(O)/C=C/C(=O)O [(-)-Eseroline fumarate]
Sheet LOPAC_screen_w_protease, primary screen at 5 µM, mean of two replicates
  mean (LOPAC screen with protease): 88.3904
Sheet LOPAC_screen_w_protease, primary screen at 5 µM, replicate 1
  Replicate_1 (LOPAC screen with protease): 89.8661
Sheet LOPAC_screen_w_protease, primary screen at 5 µM, replicate 2
  Replicate_2 (LOPAC screen with protease): 86.9147

## CS(=O)(=O)O.Cn1cc(C(F)(F)F)nc1-c1ccc(OCC(O)CNCCOc2ccc(O)c(C(N)=O)c2)cc1 (stereo not drawn) [CGP 20712A methanesulfonate]
[13]
  mean: 0.4402
[14]
  Replicate_1: 1.402
[15]
  Replicate_2: -0.5212

## CCCc1c(-c2ccc(O)cc2)nn(-c2ccc(O)cc2)c1-c1ccc(O)cc1
[16]
  mean: 1.246
[17]
  Replicate_1: 3.0422
[18]
  Replicate_2: -0.5503

## OC[C@H]1O[C@@H](n2cnc3c(Nc4ccccc4)ncnc32)[C@H](O)[C@@H]1O [N6-Phenyladenosine]
LOPAC1280 primary screen with protease, 5 µM compound, replicate 1, read-out: Replicate_1 (LOPAC_screen_w_protease)
  inhibition at 5 µM: 2.83%
LOPAC1280 primary screen with protease, 5 µM compound, replicate 2, read-out: Replicate_2 (LOPAC_screen_w_protease)
  inhibition at 5 µM: 0.0632%
LOPAC1280 primary screen with protease, 5 µM compound, mean of two replicates
  mean (LOPAC_screen_w_protease): 1.447

## Nc1nc2[nH]c(=O)cnc2c(=O)[nH]1 [Isoxanthopterin]
[19]
  inhibition at 5 µM: 2.42%
[20]
  inhibition at 5 µM: 3.73%
[21]
  inhibition at 5 µM: 1.11%

## O=C(O)/C=C\C(=O)O.O=[N+]([O-])c1ccc2nc(N3CCNCC3)ccc2c1 [Quipazine, 6-nitro-, maleate]
[13]
  mean: 0.7082
[14]
  Replicate_1: 1.452
[15]
  Replicate_2: -0.03606

## Nc1ncnc2c1ncn2[C@@H]1O[C@H](COP(=O)(O)CP(=O)(O)OP(=O)([O-])[O-])[C@H](O)C1O.[Li+].[Li+] (stereo partly drawn)
[10]
  mean: 2.729
[11]
  Replicate_1: 1.677
[12]
  Replicate_2: 3.782

## Cl.O=C(O)Cc1c[nH]cn1 [Imidazole-4-acetic acid hydrochloride]
[13]
  mean: 0.8241
[14]
  Replicate_1: 2.255
[15]
  Replicate_2: -0.6064

## CCN(CC)C(=O)c1ccc(O)c(OC)c1 [Vanillic acid diethylamide]
[16]
  mean: 0.9703
[17]
  Replicate_1: 1.198
[18]
  Replicate_2: 0.7424

## Br.CO[C@H]1CC=C2CCN3CCC4=C(CC(=O)OC4)[C@]23C1 [Dihydro-beta-erythroidine hydrobromide]
[7]
  mean (LOPAC_screen_w_protease): 2.038
[8]
  Replicate_1 (LOPAC_screen_w_protease): 1.621
[9]
  Replicate_2 (LOPAC_screen_w_protease): 2.454

## C#C[C@]1(O)CC[C@H]2[C@@H]3CCC4=Cc5oncc5C[C@]4(C)[C@H]3CC[C@@]21C [Danazol]
[19]
  inhibition at 5 µM: 2.5%
[20]
  inhibition at 5 µM: 4.08%
[21]
  inhibition at 5 µM: 0.911%
